Measurements as given in PMC9611657, “Bruton’s Tyrosine Kinase Inhibitor Zanubrutinib Effectively Modulates Cancer Resistance by Inhibiting Anthracycline Metabolism and Efflux” (Pharmaceutics, 2022).

How the values were obtained:
[1] = molecular target: T1, aldo-keto reductase 1C3 (AKR1C3) (Homo sapiens, UniProt P42330); test: reduction to daunorubicinol by recombinant enzyme (DAUN […]), UHPLC, Michaelis-Menten kinetics; assay type: biochemical
T1 construct: human recombinant AKR1C3 from E. coli BL21(DE3), HisTrap purified
T1 sequence (P42330 1-323): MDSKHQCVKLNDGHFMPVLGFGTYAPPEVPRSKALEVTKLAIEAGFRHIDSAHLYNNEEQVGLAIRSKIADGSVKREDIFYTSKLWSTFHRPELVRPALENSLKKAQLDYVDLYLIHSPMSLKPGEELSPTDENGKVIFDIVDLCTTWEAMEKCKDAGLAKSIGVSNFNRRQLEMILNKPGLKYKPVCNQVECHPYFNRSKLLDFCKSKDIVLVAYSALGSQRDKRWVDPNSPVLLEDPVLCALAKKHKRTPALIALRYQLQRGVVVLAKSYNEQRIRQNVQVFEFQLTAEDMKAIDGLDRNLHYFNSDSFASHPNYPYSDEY

[2] = molecular target: T1, aldo-keto reductase 1C3 (AKR1C3); test: inhibition of daunorubicin reduction by recombinant enzyme, UHPLC of DAUN-OL, Michaelis-Menten/Lineweaver-Burk; assay type: biochemical

| Ki [2] [nM] | SMILES | reduction to daunorubicinol by recombinant enzyme (DAUN 200-2000 μM), UHPLC, Mic [1] |
| --- | --- | --- |
| – | COc1cccc2c1C(=O)c1c(O)c3c(c(O)c1C2=O)C[C@@](O)(C(C)=O)C[C@@H]3O[C@H]1C[C@H](N)[C@H](O)[C@H](C)O1 [DAUN, Daunorubicin] | AKR1C3 was incubated with the substrate DAUN, with or without ZAN. |
| 2900 | C=CC(=O)N1CCC([C@@H]2CCNc3c(C(N)=O)c(-c4ccc(Oc5ccccc5)cc4)nn32)CC1 [ZAN, Zanubrutinib] | – |
